Laboratory results as given in patent US20140343017A1, “PYRROLE COMPOUND” (Kabushiki Kaisha Yakult Honsha, priority 2012, published 2014).

Columns and labels:
Test in all cases: Inhibitory effect on growth of human cancer cells (in vitro), WST-8
Type in all cases: cell-based
[1] = test system: human colorectal cancer HCT116 cells; conditions: 96 hours culture
Method: (§1) Each pyrrole compound of the present invention was studied for its effects on the growth of human non-small cell lung cancer A549 cells and human colorectal cancer HT-29 cells and HCT116 cells. The cells of each line were suspended in an RPMI1640 medium supplemented with 10% fetal bovine serum and inoculated at a cell density of 1000 cells/50 μL/well to a 96-well plate. After overnight culture, each compound diluted with a medium was added thereto at a concentration of 50 μL/well, and the cells were further cultured for 96 hours. After the completion of culture, WST-8 (Seikagaku Corp.) was added thereto at a concentration of 10 μL/well, and the cells were cultured at 37° C. for approximately 1 hour under 5% CO2 conditions, followed by measurement of absorbance at 450 nm.

[2] = test system: human colorectal cancer HT-29 cells; conditions: Homo sapiens, HT-29, 96 h, 96 hours culture, read-out: IC50 (nM) HT29
Method: as §1

[3] = test system: human non-small cell lung cancer A549 cells; conditions: 96 hours culture
Method: as §1

Row | SMILES | IC50 ([1]; Homo sapiens, HCT-116, 96 h) [nM] | IC50 [2] [nM] | IC50 ([3]; Homo sapiens, A549, 96 h) [nM] | IC50 [1] [nM] | IC50 [3] [nM]
1 | COc1ccc(C(=O)c2c(C(C)O)[nH]c(-c3nnn(CCO)n3)c2C)cc1Br (stereo not drawn) [Compound 131, (3-bromo-4-methoxyphenyl)(2-(1-hydroxyethyl)-5-(2-(2-hydroxyethyl)-2H-tetrazol-5-yl)-4-methyl-1H-pyrrol-3-yl)methanone] | 90.9 | 34.8 | 45.1 |  | 
2 | CC(=O)OCCn1nnc(-c2[nH]c(C#N)c(C(=O)c3cccc(Br)c3)c2C)n1 [Compound 132, 2-(5-(4-(3-bromobenzoyl)-5-cyano-3-methyl-1H-pyrrol-2-yl)-2H-tetrazol-2-yl)ethyl acetate] | 167 | 179 | 248 |  | 
3 | Cc1c(-c2nnn(CCO)n2)[nH]c(C#N)c1C(=O)c1cccc(Br)c1 [Compound 133, 3-(3-bromobenzoyl)-5-(2-(2-hydroxyethyl)-2H-tetrazol-5-yl)-4-methyl-1H-pyrrole-2-carbonitrile] | 158 | 192 | 238 |  | 
4 | COC(=O)c1[nH]c(-c2nnn(CCO)n2)c(C)c1C(=O)c1cccc(Br)c1 [Compound 137, methyl 3-(3-bromobenzoyl)-5-(2-(2-hydroxyethyl)-2H-tetrazol-5-yl)-4-methyl-1H-pyrrole-2-carboxylate] | 186 | 156 | 278 |  | 
5 | COc1ccc(C(=O)c2c(C#N)[nH]c(-c3nnn(CCOC(C)=O)n3)c2C)cc1Br [Compound 138, 2-(5-(4-(3-bromo-4-methoxybenzoyl)-5-cyano-3-methyl-1H-pyrrol-2-yl)-2H-tetrazol-2-yl)ethyl acetate] | 167 | 170 | 239 |  | 
6 | COc1ccc(C(=O)c2c(C#N)[nH]c(-c3nnn(CCO)n3)c2C)cc1Br [Compound 139, 3-(3-bromo-4-methoxybenzoyl)-5-(2-(2-hydroxyethyl)-2H-tetrazol-5-yl)-4-methyl-1H-pyrrole-2-carbonitrile] | 171 | 174 | 245 |  | 
7 | CNC(=O)c1[nH]c(-c2nnn(CCO)n2)c(C)c1C(=O)c1ccc(OC)c(Br)c1 [Compound 149, 3-(3-bromo-4-methoxybenzoyl)-5-(2-(2-hydroxyethyl)-2H-tetrazol-5-yl)-N,4-dimethyl-1H-pyrrole-2-carboxamide] | 219 | 232 | 306 |  | 
8 | COc1ccc(C(=O)c2c(C(N)=O)[nH]c(-c3nnn(CCO)n3)c2C)cc1Br [Compound 150, 3-(3-bromo-4-methoxybenzoyl)-5-(2-(2-hydroxyethyl)-2H-tetrazol-5-yl)-4-methyl-1H-pyrrole-2-carboxamide] | 181 | 145 | 192 |  | 
9 | Cc1[nH]c(-c2nnn(CCOC(=O)CN)n2)c(C)c1C(=O)c1cccc(Br)c1 [Compound 152, 2-(5-(4-(3-bromobenzoyl)-3,5-dimethyl-1H-pyrrol-2-yl)-2H-tetrazol-2-yl)ethyl 2-aminoacetate] | 7.8 | 8.3 | 10.8 |  | 
10 | Cc1[nH]c(-c2nnn(CCO)n2)c(C)c1C(=O)c1cccc(CO)c1 [Compound 163, (5-(2-(2-hydroxyethyl)-2H-tetrazol-5-yl)-2,4-dimethyl-1H-pyrrol-3-yl)(3-(hydroxymethyl)phenyl)methanone] | 67.5 | 73.8 | 305 |  | 
11 | CCn1nnc(-c2[nH]c(C)c(C(=O)c3cccc(OCCN)c3)c2C)n1 [Compound 165, (3-(2-aminoethoxy)phenyl)(5-(2-ethyl-2H-tetrazol-5-yl)-2,4-dimethyl-1H-pyrrol-3-yl)methanone] |  | 126 | 359 | 40.2 | 
12 | CCn1nnc(-c2[nH]c(C)c(C(=O)c3ccc(OCCN)c(Br)c3)c2C)n1 [Compound 167, (4-(2-aminoethoxy)-3-bromophenyl) (5-(2-ethyl-2H-tetrazol-5-yl)-2,4-dimethyl-1H-pyrrol-3-yl)methanone] | 39.5 | 31.5 |  |  | 139
13 | Cc1[nH]c(-c2nnn(CCO)n2)c(C)c1C(=O)c1ccc(OCCN)c(Br)c1 [Compound 168, (4-(2-aminoethoxy)-3-bromophenyl)(5-(2-(2-hydroxyethyl)-2H-tetrazol-5-yl)-2,4-dimethyl-1H-pyrrol-3-yl)methanone] | 506 | 670 | 886 |  | 
14 | COc1ccc(C(=O)c2c(/C=N/O)[nH]c(-c3nnn(CCOC(C)=O)n3)c2C)cc1Br [Compound 169, (E)-2-(5-(4-(3-bromo-4-methoxybenzoyl)-5-((hydroxyimino)methyl)-3-methyl-1H-pyrrol-2-yl)-2H-tetrazol-2-yl)ethyl acetate] | 162 | 167 | 225 |  | 
15 | COc1ccc(C(=O)c2c(/C=N\O)[nH]c(-c3nnn(CCOC(C)=O)n3)c2C)cc1Br [Compound 170, (Z)-2-(5-(4-(3-bromo-4-methoxybenzoyl)-5-((hydroxyimino)methyl)-3-methyl-1H-pyrrol-2-yl)-2H-tetrazol-2-yl)ethyl acetate] | 133 | 143 | 197 |  | 
16 | CC(=O)OCCn1nnc(-c2[nH]c(CCl)c(C(=O)c3cccc(Br)c3)c2C)n1 [Compound 171, 2-(5-(4-(3-bromobenzoyl)-5-(chloromethyl)-3-methyl-1H-pyrrol-2-yl)-2H-tetrazol-2-yl)ethyl acetate] | 37.7 | 35.7 | 47.4 |  | 
17 | COc1ccc(C(=O)c2c(CCl)[nH]c(-c3nnn(CCOC(C)=O)n3)c2C)cc1Br [Compound 172, 2-(5-(4-(3-bromo-4-methoxybenzoyl)-5-(chloromethyl)-3-methyl-1H-pyrrol-2-yl)-2H-tetrazol-2-yl)ethyl acetate] | 36.9 | 34.5 | 47 |  | 
18 | Cc1[nH]c(-c2nnc(CCCl)o2)c(C)c1C(=O)c1cccc(Br)c1 [Compound 174, (3-bromophenyl)(5-(5-(2-chloroethyl)-1,3,4-oxadiazol-2-yl)-2,4-dimethyl-1H-pyrrol-3-yl)methanone] | 44.6 | 38.6 | 77.1 |  | 
19 | Cc1[nH]c(-c2nnc(C3CC3)o2)c(C)c1C(=O)c1cccc(Br)c1 [Compound 177, (3-bromophenyl)(5-(5-cyclopropyl-1,3,4-oxadiazol-2-yl)-2,4-dimethyl-1H-pyrrol-3-yl)methanone] | 0.4 | 0.4 | 1.5 |  | 
20 | Cc1[nH]c(-c2nnc(C(C)C)o2)c(C)c1C(=O)c1cccc(Br)c1 [Compound 178, (3-bromophenyl) (5-(5-isopropyl-1,3,4-oxadiazol-2-yl)-2,4-dimethyl-1H-pyrrol-3-yl)methanone] | 45.1 | 36.9 | 71.8 |  | 
21 | Cc1[nH]c(-c2nnc(C3CCC3)o2)c(C)c1C(=O)c1cccc(Br)c1 [Compound 179, (3-bromophenyl) (5-(5-cyclobutyl-1,3,4-oxadiazol-2-yl)-2,4-dimethyl-1H-pyrrol-3-yl)methanone] | 329 | 336 | 800 |  | 
22 | Cc1nnc(-c2[nH]c(C)c(C(=O)c3cccc(Br)c3)c2C)o1 [Compound 185, (3-bromophenyl) (2,4-dimethyl-5-(5-methyl-1,3,4-oxadiazol-2-yl)-1H-pyrrol-3-yl)methanone] | 2.9 | 1.8 | 9.1 |  | 
23 | Cc1[nH]c(-c2nnc(C(F)F)o2)c(C)c1C(=O)c1cccc(Br)c1 [Compound 186, (3-bromophenyl)(5-(5-(difluoromethyl)-1,3,4-oxadiazol-2-yl)-2,4-dimethyl-1H-pyrrol-3-yl)methanone] | 64.1 | 41.7 | 289 |  | 
24 | Cc1[nH]c(-c2nnc(C3(O)CC3)o2)c(C)c1C(=O)c1cccc(Br)c1 [Compound 188, (3-bromophenyl)(5-(5-(1-hydroxycyclopropyl)-1,3,4-oxadiazol-2-yl)-2,4-dimethyl-1H-pyrrol-3-yl)methanone] | 40.4 | 35.1 | 37.8 |  | 
25 | Cc1[nH]c(-c2nnc(C3(C)CC3)o2)c(C)c1C(=O)c1cccc(Br)c1 [Compound 189, (3-bromophenyl)(2,4-dimethyl-5-(5-(1-methylcyclopropyl)-1,3,4-oxadiazol-2-yl)-1H-pyrrol-3-yl)methanone] | 199 | 135 | 164 |  | 
26 | Cc1[nH]c(-c2nnc(C3CC3C)o2)c(C)c1C(=O)c1cccc(Br)c1 (stereo not drawn) [Compound 190, (3-bromophenyl) (2,4-dimethyl-5-(5-(2-methylcyclopropyl)-1,3,4-oxadiazol-2-yl)-1H-pyrrol-3-yl)methanone] | 219 | 192 | 266 |  | 
27 | CCc1nnc(-c2[nH]c(C)c(C(=O)c3cccc([N+](=O)[O-])c3)c2C)o1 [Compound 195, (5-(5-ethyl-1,3,4-oxadiazol-2-yl)-2,4-dimethyl-1H-pyrrol-3-yl)(3-nitrophenyl)methanone] | 9.9 | 8.5 | 12.2 |  | 
28 | Cc1[nH]c(-c2nnc(C3CC3)o2)c(C)c1C(=O)c1cccc([N+](=O)[O-])c1 [Compound 196, (5-(5-cyclopropyl-1,3,4-oxadiazol-2-yl)-2,4-dimethyl-1H-pyrrol-3-yl)(3-nitrophenyl)methanone] | 5.5 | 6.2 | 9.9 |  | 
29 | CCc1nnc(-c2[nH]c(C)c(C(=O)c3ccc(OC)c(Br)c3)c2C)o1 [Compound 197, (3-bromo-4-methoxyphenyl)(5-(5-ethyl-1,3,4-oxadiazol-2-yl)-2,4-dimethyl-1H-pyrrol-3-yl)methanone] | 1.4 | 0.9 | 3.9 |  | 
